The values below come from patent US20110136193A1, “METHOD FOR PRODUCING BUTANOL USING EXTRACTIVE FERMENTATION WITH OSMOLYTE ADDITION” (BUTAMAX(TM) ADVANCED BIOFUELS LLC, priority 2009, published 2011).

Series [1] can be described thus: Kp of isobutanol in an oleyl alcohol/aqueous system (general statement). The class given is physicochemical. The following applies: no added osmolyte. From the text:
Addition of organic extractants like oleyl alcohol into the fermentor during the production stage extracts butanol from the aqueous phase which alleviates its inhibitory effect on the microorganism resulting in higher rate and titer of isobutanol fermentation. Fermentation rate in this two phase system also slows down once the aqueous phase concentration of isobutanol reaches an inhibitory threshold level. In the presence of the extractant (oleyl alcohol) in the fermentor, the aqueous concentration of isobutanol is dictated by the partitioning coefficient (Kp) of isobutanol between the two phases. In the case of an oleyl alcohol/aqueous system, Kp is in the range of 3.5-4.5. A significant increase in isobutanol rate and titer can be achieved if Kp for isobutanol can be increased during fermentation such that the aqueous concentration of isobutanol drops below the inhibitory threshold level.

The nature of series [2]: Partition coefficient (Kp) of isobutanol between oleyl alcohol extractant and sucrose-supplemented basal fermentation medium. It counts as physicochemical. The following applies: oleyl alcohol / BFM, 30° C. Here is the method:
The purpose of this Example was to evaluate the effect of sucrose concentrations in the fermentation medium on the partition coefficient (Kp) of isobutanol when oleyl alcohol was used as the extractant. The basal fermentation medium (BFM) typically used in E. coli fermentations was used as the fermentation medium in this Example.
The following experimental procedure was used to generate the data in Table 3. In these Kp measurement experiments, a specified amount of sucrose was added as an osmolyte to the basal fermentation medium. To 30 mL of the sucrose-supplemented BFM, 10 mL of isobutanol rich oleyl alcohol (OA) extractant containing 168 g/L of isobutanol was added and mixed vigorously for 4 and 8 hours at 30° C. with shaking at 250 rpm in a table top shaker (Innova 4230, New Brunswick scientific, Edison, N.J.) to reach equilibrium between the two phases. The aqueous and organic phases in each flask were separated by decantation. The aqueous phase was centrifuged (2 minutes on 13,000 rpm with an Eppendorf centrifuge model 5415R) to remove residual extractant phase and the supernatant analyzed for glucose and isobutanol by HPLC.
Partition coefficients (Kp) for isobutanol distribution between the organic and aqueous phases were calculated from the known amount of isobutanol added to the flask and the isobutanol concentration data measured in the aqueous phase. The concentration of isobutanol in the extractant phase was determined by mass balance. The partition coefficient was determined as the ratio of isobutanol concentration in the organic and the aqueous phase, i.e., Kp=[Isobutanol]Organic phase/[isobutanol]Aqueous phase. Each data point corresponding to a specified level of sucrose as shown in Table 3 was repeated twice and values for Kp reported as the average of the two flasks.

Series [3] in a line: Activity of the enzyme expressed from the sadB gene in cell-free extracts. The class given is biochemical. The note with it: cell-free extracts of E. coli Mach1/pTrc99a::sadB; isobutyraldehyde as the standard. The procedure: The sadB coding region was then cloned into the vector pTrc99a (Amann et al., Gene 69: 301-315, 1988). The pCR4Blunt::sadB was digested with EcoRI, releasing the sadB fragment, which was ligated with EcoRI-digested pTrc99a to generate pTrc99a::sadB. This plasmid was transformed into E. coli Mach 1 cells and the resulting transformant was named Mach1/pTrc99a::sadB. The activity of the enzyme expressed from the sadB gene in these cells was determined to be 3.5 mmol/min/mg protein in cell-free extracts when analyzed using isobutyraldehyde as the standard.

For the molecule `CC(C)CO` [isobutanol], the “partitioning coefficient (Kp) of isobutanol between the two phases” value in series [1] is listed as 3.5-4.5. For the same molecule, the Kp is listed as 4.35 in series [2] (sucrose added 0 moles/L, total sugars 0.17 moles/L); 4.44 in series [2] (sucrose added 0.03 moles/L, total sugars 0.20 moles/L); 4.41 in series [2] (sucrose added 0.09 moles/L, total sugars 0.26 moles/L); 4.60 in series [2] (sucrose added 0.17 moles/L, total sugars 0.34 moles/L); 4.69 in series [2] (sucrose added 0.26 moles/L, total sugars 0.43 moles/L); 5.09 in series [2] (sucrose added 0.33 moles/L, total sugars 0.50 moles/L). For the same molecule, the Kp in series [2] (sucrose added 0.51 moles/L, total sugars 0.68 moles/L) turned out to be 5.21; in series [2] (sucrose added 0.67 moles/L, total sugars 0.84 moles/L), 5.85; in series [2] (sucrose added 1.00 moles/L, total sugars 1.17 moles/L), 6.85; in series [2] (sucrose added 1.33 moles/L, total sugars 1.50 moles/L), 7.77; in series [2] (sucrose added 2.00 moles/L, total sugars 2.17 moles/L), 10.69.

B1: sadB: butanol dehydrogenase from Achromobacter xylosoxidans (protein SEQ ID NO: 10), expressed in E. coli Mach 1 cells (protein)
chain: MKALVYHGDHKISLEDKPKPTLQKPTDVVVRVLKTTICGTDLGIYKGKNPEVADGRILGHEGVGVIEEVGESVTQFKKGDKVLISCVTSCGSCDYCKKQLYSHCRDGGWILGYMIDGVQAEYVRIPHADNSLYKIPQTIDDEIAVLLSDILPTGHEIGVQYGNVQPGDAVAIVGAGPVGMSVLLTAQFYSPSTIIVIDMDENRLQLAKELGATHTINSGTENVVEAVHRIAAEGVDVAIEAVGIPATWDICQEIVKPGAHIANVGVHGVKVDFEIQKLWIKNLTITTGLVNTNTTPMLMKVASTDKLPLKKMITHRFELAEIEHAYQVFLNGAKEKAMKIILSNAGAA
modifications: Achromobacter xyloxidans
With B1, the “activity of the enzyme expressed from the sadB gene” value in series [3] turned out to be 3.5 mmol/min/mg protein.
